{"source": "patent US9308182B2", "about": "(TEVA PHARMACEUTICAL INDUSTRIES, LTD., priority 2012, dated 2016)", "origin": "cited, not measured here", "key": {"[1]": {"settings": "cited from earlier work"}, "MAO": {"tested_on": "MAO", "settings": "metabolite of rasagiline; cited from earlier work"}}, "note": "Where two headings read alike, the source gives them in different places.", "data": [{"smiles": "NCCc1ccc(O)cc1", "note": "[Tyramine, tyramine]", "values": [{"measurement": "increase in blood pressure", "setting": "[1]; 1 mg injected into the portal vein", "value": 18, "unit": "mmHg"}, {"measurement": "increase in blood pressure", "setting": "[1]; 1 mg injected systematically", "value": 59, "unit": "mmHg"}]}, {"smiles": "NC1CCc2ccccc21", "note": "(stereo not drawn) [aminoindan]", "values": [{"measurement": "MAO inhibition", "setting": "MAO", "value": "does not inhibit MAO"}]}]}
